Calls of active or inactive are those of the source. The calls are words filed in the database; no cut-off is given here. Starred links: 1 amine or outer side, 2 acyl side, 3 side chain; linkers in the order of their positions; H or OH if unused. Non-standard residues stand in square brackets, D forms with d. Residues, ends and D or L forms follow the SMILES beside them. *: point of attachment. Benzoyl(4-CO2Me) = COC(=O)c1ccc(C(=O)*)cc1; Lys(Me3) = C[N+](C)(C)CCCC[C@H](N)C(=O)O; Benzoyl(4-Br) = O=C(c1ccc(Br)cc1)*; Ethylenediamine = C(CN[*:2])N[*:1]; Gly(cPent) = N[C@H](C(=O)O)C1CCCC1; Ala(cPr) = N[C@@H](CC1CC1)C(=O)O; X6 = O=C(O)c1ccc(S(=O)(=O)*)cc1; NHCH(CH2OH)2 = OCC(CO)N*; X10 = O=C(Cc1ccccc1Br)*; Bz = O=C(c1ccccc1)*; NHCH2CH2OH = OCCN*; X4 = CC(C)C(CO)N*
Columns and labels:
[1] = target: T1, Chromobox protein homolog 7 (Homo sapiens, UniProt O95931); assay: (§1) Displacement of FITC-labeled H3K27me3 from CBX7 (unknown origin) after 15 mins by fluorescence polarization assay
T1 sequence (O95931 whole entry): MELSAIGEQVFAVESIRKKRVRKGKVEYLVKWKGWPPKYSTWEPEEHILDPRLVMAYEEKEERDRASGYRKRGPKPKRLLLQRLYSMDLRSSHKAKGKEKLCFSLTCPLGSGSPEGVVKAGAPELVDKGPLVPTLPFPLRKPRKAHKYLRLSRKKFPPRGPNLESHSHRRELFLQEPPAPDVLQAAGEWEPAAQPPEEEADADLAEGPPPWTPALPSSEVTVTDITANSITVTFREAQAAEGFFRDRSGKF

[2] = target: T1, Chromobox protein homolog 7; assay: Binding affinity to CBX7 (unknown origin) by isothermal titration calorimetry assay
[3] = target: T2, Chromobox protein homolog 8 (Homo sapiens, UniProt Q9HC52); assay: Binding affinity to CBX8 (unknown origin) by isothermal titration calorimetry assay
T2 sequence (Q9HC52 whole entry): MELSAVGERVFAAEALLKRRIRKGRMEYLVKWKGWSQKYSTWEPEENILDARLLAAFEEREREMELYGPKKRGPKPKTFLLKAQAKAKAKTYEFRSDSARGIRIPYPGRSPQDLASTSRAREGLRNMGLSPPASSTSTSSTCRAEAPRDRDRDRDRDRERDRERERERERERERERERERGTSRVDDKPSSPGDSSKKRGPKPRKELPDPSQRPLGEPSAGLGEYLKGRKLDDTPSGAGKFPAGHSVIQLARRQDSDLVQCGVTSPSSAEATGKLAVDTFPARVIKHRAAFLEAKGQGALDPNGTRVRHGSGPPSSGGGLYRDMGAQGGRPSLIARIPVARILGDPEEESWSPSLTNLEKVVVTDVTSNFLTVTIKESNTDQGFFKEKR

[4] = target: T3, E3 SUMO-protein ligase CBX4 (Homo sapiens, UniProt O00257); assay: Binding affinity to CBX4 (unknown origin) by isothermal titration calorimetry assay
T3 sequence (O00257 whole entry): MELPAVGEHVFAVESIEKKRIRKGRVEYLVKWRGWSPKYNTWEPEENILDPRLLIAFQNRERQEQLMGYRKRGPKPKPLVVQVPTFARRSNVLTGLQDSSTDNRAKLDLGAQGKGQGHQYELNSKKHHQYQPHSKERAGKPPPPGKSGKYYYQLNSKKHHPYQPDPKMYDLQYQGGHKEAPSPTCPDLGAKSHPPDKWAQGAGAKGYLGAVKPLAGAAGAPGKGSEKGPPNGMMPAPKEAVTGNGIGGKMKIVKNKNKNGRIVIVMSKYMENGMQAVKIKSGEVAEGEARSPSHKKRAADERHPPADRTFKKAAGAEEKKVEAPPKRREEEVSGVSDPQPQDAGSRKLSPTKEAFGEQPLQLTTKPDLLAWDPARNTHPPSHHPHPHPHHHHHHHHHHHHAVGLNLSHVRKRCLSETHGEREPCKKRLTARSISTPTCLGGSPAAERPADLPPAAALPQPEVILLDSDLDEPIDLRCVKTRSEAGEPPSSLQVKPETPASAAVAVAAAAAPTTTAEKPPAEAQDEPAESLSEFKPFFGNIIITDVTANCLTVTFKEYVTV

[5] = target: Chromobox protein homolog 1 (Homo sapiens, UniProt P83916); assay: Binding affinity to CBX1 (unknown origin) by isothermal titration calorimetry assay
[6] = target: T4, Chromobox protein homolog 7 (Homo sapiens) (UniProt O95931); assay: as §1
T4 sequence (whole entry): T1 sequence (O95931 whole entry)

Chromobox protein homolog 1, sequence (P83916 whole entry): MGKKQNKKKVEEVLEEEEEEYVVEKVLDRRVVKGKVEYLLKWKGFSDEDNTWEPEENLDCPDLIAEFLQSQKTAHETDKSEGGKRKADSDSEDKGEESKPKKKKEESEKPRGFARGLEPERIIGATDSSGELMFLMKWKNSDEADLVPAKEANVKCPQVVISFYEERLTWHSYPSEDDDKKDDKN

| IC50 [1] [µM] | Kd [2] [µM] | Kd [3] [µM] | Compound | further results |
| --- | --- | --- | --- | --- |
| 11 | 2 | 14.2 | CC(=O)N[C@@H](Cc1ccccc1)C(=O)N[C@@H](C)C(=O)N[C@@H](CC(C)C)C(=O)N[C@@H](CCCC[N+](C)(C)C)C(=O)N[C@@H](CO)C(N)=O | Kd [4]: 3.7 µM; Kd [5]: 43 µM |
| – | 0.2 | 1.89 | COC(=O)c1ccc(C(=O)N[C@@H](Cc2ccccc2)C(=O)N[C@@H](C)C(=O)N[C@H](C(=O)N[C@@H](CCCC[N+](C)(C)C)C(=O)NC(CO)CO)C2CCCC2)cc1 ({Benzoyl(4-CO2Me)}-FA[Gly(cPent)][Lys(Me3)]-{NHCH(CH2OH)2}) | Kd [4]: 0.29 µM; Kd [5]: > 500 µM |
| – | 0.2 | 1.78 | COC(=O)c1ccc(C(=O)N[C@@H](Cc2ccccc2)C(=O)N[C@@H](C)C(=O)N[C@H](C(=O)N[C@@H](CCCC[N+](C)(C)C)C(=O)N[C@@H](CO)C(N)=O)C2CCCC2)cc1 ({Benzoyl(4-CO2Me)}-FA[Gly(cPent)][Lys(Me3)]S-NH2) | – |
| 89 | – | – | CC(C)C[C@H](NC(=O)[C@H](C)NC(=O)Cc1ccccc1Br)C(=O)N[C@@H](CCCC[N+](C)(C)C)C(=O)N[C@@H](CO)C(N)=O (X10-AL[Lys(Me3)]S-NH2) | – |
| 53 | – | – | CC(C)C[C@H](NC(=O)[C@H](C)NC(=O)CNS(=O)(=O)c1ccc(C(=O)O)cc1)C(=O)N[C@@H](CCCC[N+](C)(C)C)C(=O)N[C@@H](CO)C(N)=O (X6-GAL[Lys(Me3)]S-NH2) | – |
| – | – | 12.3 | CC(=O)N[C@@H](Cc1ccccc1)C(=O)N[C@@H](C)C(=O)N[C@@H](Cc1ccc(O)cc1)C(=O)N[C@@H](CCCC[N+](C)(C)C)C(=O)N[C@@H](CO)C(N)=O (Ac-FAY[Lys(Me3)]S-NH2) | – |
| – | 0.22 | 0.48 | C[C@H](NC(=O)[C@H](Cc1ccccc1)NC(=O)c1ccc(Br)cc1)C(=O)N[C@H](C(=O)N[C@@H](CCCC[N+](C)(C)C)C(=O)NCCN)C1CCCC1 ({Benzoyl(4-Br)}-FA[Gly(cPent)][Lys(Me3)]-Ethylenediamine) | – |
| 62 | – | – | CSCC[C@H](NC(=O)[C@H](C)NC(=O)[C@H](Cc1ccccc1)NC(C)=O)C(=O)N[C@@H](CCCC[N+](C)(C)C)C(=O)N[C@@H](CO)C(N)=O (Ac-FAM[Lys(Me3)]S-NH2) | – |
| 35 | – | – | CC(=O)N[C@@H](Cc1ccccc1)C(=O)N[C@@H](C)C(=O)N[C@H](C(=O)N[C@@H](CCCC[N+](C)(C)C)C(=O)N[C@@H](CO)C(N)=O)[C@@H](C)O (Ac-FAT[Lys(Me3)]S-NH2) | – |
| > 250 | – | – | CC(=O)N[C@@H](Cc1ccccc1)C(=O)N[C@@H](C)C(=O)N[C@@H](CC(C)C)C(=O)N[C@@H](CCCC[N+](C)(C)C)C(=O)NC(CO)C(C)C (some centres undefined) (Ac-FAL[Lys(Me3)]-X4) | – |
| 9 | 5.4 | 15 | CC(=O)N[C@@H](Cc1ccccc1)C(=O)N[C@@H](C)C(=O)N[C@@H](CC(C)C)C(=O)N[C@@H](CCCC[N+](C)(C)C)C(=O)N[C@H](CO)C(N)=O | – |
| 8.8 | – | – | CC(C)C[C@H](NC(=O)[C@H](C)NC(=O)[C@H](Cc1ccccc1)NC(=O)c1ccccc1)C(=O)N[C@@H](CCCC[N+](C)(C)C)C(=O)N[C@@H](CO)C(N)=O (Bz-FAL[Lys(Me3)]S-NH2) | – |
| – | 4.1 | 15 | C[C@H](NC(=O)Cc1ccccc1)C(=O)N[C@H](C(=O)N[C@@H](CCCC[N+](C)(C)C)C(=O)NC(CO)CO)C1CCCC1 | – |
| 11.2 | – | – | CC(=O)N[C@@H](Cc1ccccc1)C(=O)N[C@@H](C)C(=O)N[C@@H](CC1CC1)C(=O)N[C@@H](CCCC[N+](C)(C)C)C(=O)N[C@@H](CO)C(N)=O (Ac-FA[Ala(cPr)][Lys(Me3)]S-NH2) | – |
| – | – | – | Ac-FALKS-NH2 | inhibition [6]: inactive |
| 26 | – | – | CC(=O)N[C@@H](Cc1ccccc1)C(=O)N[C@@H](C)C(=O)N[C@@H](CC(C)C)C(=O)N[C@@H](CCCC[N+](C)(C)C)C(=O)NCCO (Ac-FAL[Lys(Me3)]-NHCH2CH2OH) | – |
| 79 | – | – | CC(=O)N[C@@H](Cc1ccccc1)C(=O)N[C@@H](C)C(=O)N[C@@H](CC(C)C)C(=O)N[C@@H](CCCC[N+](C)(C)C)C(=O)N[C@H](CO)C(=O)O | – |
| 53 | – | – | CC(=O)N[C@@H](Cc1ccccc1)C(=O)N[C@@H](CO)C(=O)N[C@@H](CC(C)C)C(=O)N[C@@H](CCCC[N+](C)(C)C)C(=O)N[C@@H](CO)C(N)=O (Ac-FSL[Lys(Me3)]S-NH2) | – |
| > 2000 | – | – | CC(C)C[C@H](NC(=O)[C@H](C)NCc1ccc(C(=O)O)cc1)C(=O)N[C@@H](CCCC[N+](C)(C)C)C(=O)N[C@@H](CO)C(N)=O | – |

| Compound | IC50 [1] [µM] | Kd [2] [µM] | Kd [3] [µM] | further results |
| --- | --- | --- | --- | --- |
| CC(C)C[C@H](NC(=O)[C@H](C)NC(=O)[C@H](Cc1ccccc1)NC(=O)c1ccc(Br)cc1)C(=O)N[C@@H](CCCC[N+](C)(C)C)C(=O)N[C@@H](CO)C(N)=O ({Benzoyl(4-Br)}-FAL[Lys(Me3)]S-NH2) | 4.6 | 0.28 | 1.5 | – |

From ChEMBL document CHEMBL3233003, “Chromodomain antagonists that target the polycomb-group methyllysine reader protein chromobox homolog 7 (CBX7)” (J Med Chem, 2014)
